Laboratory results reported in patent US9464056B2, “Fungicidal 4-methylanilino pyrazoles” (E. I. DU PONT DE NEMOURS AND COMPANY, priority 2012, dated 2016).

What was measured:
Botrytis cinerea = assay: Test A: preventive spray on tomato seedlings, Botrytis cinerea (tomato Botrytis), visual disease rating; format: in vivo; conditions: 100 = 100% disease control, 0 = no disease control relative to controls
Text: General protocol for preparing test suspensions for Tests A-H: the test compounds were first dissolved in acetone in an amount equal to 3% of the final volume and then suspended at the desired concentration (in ppm) in acetone and purified water (50/50 mix by volume) containing 250 ppm of the surfactant Trem® 014 (polyhydric alcohol esters). The resulting test suspensions were then used in Tests A-F. Spraying a 40 ppm test suspension to the point of run-off on the test plants was the equivalent of a rate of 160 g/ha. Unless otherwise indicated, the rating values indicate a 40 ppm test suspension was used. The test suspension was sprayed to the point of run-off on tomato seedlings. The following day the seedlings were inoculated with a spore suspension of Botrytis cinerea (the causal agent of tomato Botrytis) and incubated in saturated atmosphere at 20° C. for 48 h, and then moved to a growth chamber at 27° C. for 3 days, after which time visual disease ratings were made. Results for Tests A-F are given in Table A. In the Table, a rating of 100 indicates 100% disease control and a rating of 0 indicates no disease control (relative to the controls). A dash (-) indicates no test results.

[1] = test system: Puccinia recondita f. sp. tritici; assay: Test E2: preventive spray on wheat seedlings, Puccinia recondita f. sp. tritici (wheat leaf rust), visual disease rating; format: in vivo; conditions: topical, 192 h, 100 = 100% disease control, 0 = no disease control relative to controls
Text: (§1) General protocol for preparing test suspensions for Tests A-H: the test compounds were first dissolved in acetone in an amount equal to 3% of the final volume and then suspended at the desired concentration (in ppm) in acetone and purified water (50/50 mix by volume) containing 250 ppm of the surfactant Trem® 014 (polyhydric alcohol esters). The resulting test suspensions were then used in Tests A-F. Spraying a 40 ppm test suspension to the point of run-off on the test plants was the equivalent of a rate of 160 g/ha. Unless otherwise indicated, the rating values indicate a 40 ppm test suspension was used. The test suspension was sprayed to the point of run-off on wheat seedlings. The following day the seedlings were inoculated with a spore suspension of Puccinia recondita f. sp. tritici (the causal agent of wheat leaf rust) and incubated in a saturated atmosphere at 20° C. for 24 h, and then moved to a growth chamber at 20° C. for 7 days, after which time visual disease ratings were made. Results for Tests A-F are given in Table A. In the Table, a rating of 100 indicates 100% disease control and a rating of 0 indicates no disease control (relative to the controls). A dash (-) indicates no test results.

[2] = test system: Blumeria graminis f. sp. tritici; assay: Test F: preventive spray on wheat seedlings, Blumeria graminis f. sp. tritici (wheat powdery mildew), visual disease rating; format: in vivo; conditions: topical, 192 h, 100 = 100% disease control, 0 = no disease control relative to controls
Text: as §1, with “spore dust” for “spore suspension”, “of Blumeria graminis” for “of Puccinia recondita”, “tritici (also known as Erysiphe graminis f. sp. tritici, the” for “tritici (the”, “wheat powdery mildew)” for “wheat leaf rust)”, “in” for “in a saturated atmosphere at 20° C. for 24 h, and then moved to”, “for 8” for “for 7”

Septoria tritici = assay: Test D: preventive spray on wheat seedlings, Septoria tritici (wheat leaf blotch), visual disease rating; format: in vivo; conditions: Zymoseptoria tritici, topical, 504 h, 100 = 100% disease control, 0 = no disease control relative to controls
Text: General protocol for preparing test suspensions for Tests A-H: the test compounds were first dissolved in acetone in an amount equal to 3% of the final volume and then suspended at the desired concentration (in ppm) in acetone and purified water (50/50 mix by volume) containing 250 ppm of the surfactant Trem® 014 (polyhydric alcohol esters). The resulting test suspensions were then used in Tests A-F. Spraying a 40 ppm test suspension to the point of run-off on the test plants was the equivalent of a rate of 160 g/ha. Unless otherwise indicated, the rating values indicate a 40 ppm test suspension was used. The test suspension was sprayed to the point of run-off on wheat seedlings. The following day the seedlings were inoculated with a spore suspension of Septoria tritici (the causal agent of wheat leaf blotch) and incubated in saturated atmosphere at 24° C. for 48 h, and then moved to a growth chamber at 20° C. for 19 days, after which time visual disease ratings were made. Results for Tests A-F are given in Table A. In the Table, a rating of 100 indicates 100% disease control and a rating of 0 indicates no disease control (relative to the controls). A dash (-) indicates no test results.

Septoria nodorum = assay: Test C: preventive spray on wheat seedlings, Septoria nodorum (Septoria glume blotch), visual disease rating; format: in vivo; conditions: Parastagonospora nodorum, topical, 264 h, 100 = 100% disease control, 0 = no disease control relative to controls
Text: General protocol for preparing test suspensions for Tests A-H: the test compounds were first dissolved in acetone in an amount equal to 3% of the final volume and then suspended at the desired concentration (in ppm) in acetone and purified water (50/50 mix by volume) containing 250 ppm of the surfactant Trem® 014 (polyhydric alcohol esters). The resulting test suspensions were then used in Tests A-F. Spraying a 40 ppm test suspension to the point of run-off on the test plants was the equivalent of a rate of 160 g/ha. Unless otherwise indicated, the rating values indicate a 40 ppm test suspension was used. The test suspension was sprayed to the point of run-off on wheat seedlings. The following day the seedlings were inoculated with a spore suspension of Septoria nodorum (the causal agent of Septoria glume blotch) and incubated in a saturated atmosphere at 20° C. for 48 h, and then moved to a growth chamber at 20° C. for 9 days, after which time visual disease ratings were made. Results for Tests A-F are given in Table A. In the Table, a rating of 100 indicates 100% disease control and a rating of 0 indicates no disease control (relative to the controls). A dash (-) indicates no test results.

melting point [°C]	Compound	pest or weed control at 40 µg/mL (Botrytis cinerea) [%]	pest or weed control at 40 µg/mL [1] [%]	pest or weed control at 40 µg/mL [2] [%]	pest or weed control at 40 µg/mL (Septoria tritici) [%]	pest or weed control at 40 µg/mL (Septoria nodorum) [%]
	Cc1ccc(Nc2c(-c3ccc(F)cc3Cl)c(C)nn2C)c(F)c1 [Compound 6, 4-(2-chloro-4-fluorophenyl)-N-(2-fluoro-4-methylphenyl)-1,3-dimethyl-1H-pyrazol-5-amine]	99	0	100	100	0
	Cc1ccc(Nc2c(-c3ccc(F)cc3Cl)c(C)nn2C)c(Br)c1 [Compound 3, N-(2-bromo-4-methylphenyl)-4-(2-chloro-4-fluorophenyl)-1,3-dimethyl-1H-pyrazol-5-amine]	99	99	96	100	0
143 to 144	Cc1cc(F)c(Nc2c(-c3ccc(F)cc3F)c(C)nn2C)c(Br)c1 [Compound 8, N-(2-bromo-6-fluoro-4-methylphenyl)-4-(2,4-difluorophenyl)-1,3-dimethyl-1H-pyrazol-5-amine]	100	100	100	100	97
	Cc1ccc(Nc2c(-c3ccc(F)cc3Br)c(C)nn2C)c(Cl)c1 [Compound 4, 4-(2-bromo-4-fluorophenyl)-N-(2-chloro-4-methylphenyl)-1,3-dimethyl-1H-pyrazol-5-amine]	100	97	97	100	0
147 to 149	Cc1cc(Cl)c(Nc2c(-c3ccc(F)cc3F)c(C)nn2C)c(Cl)c1 [Compound 16, N-(2,6-dichloro-4-methylphenyl)-4-(2,4-difluorophenyl)-1,3-dimethyl-1H-pyrazol-5-amine]	100	100	99	73	97
	Cc1ccc(Nc2c(-c3ccc(F)cc3Br)c(C)nn2C)c(Br)c1 [Compound 5, 4-(2-bromo-4-fluorophenyl)-N-(2-bromo-4-methylphenyl)-1,3-dimethyl-1H-pyrazol-5-amine]	99	97	97	100	0
191 to 192	Cc1cc(Cl)c(Nc2c(-c3ccc(F)cc3Br)c(C)nn2C)c(Cl)c1 [Compound 15, 4-(2-bromo-4-fluorophenyl)-N-(2,6-dichloro-4-methylphenyl)-1,3-dimethyl-1H-pyrazol-5-amine]	100	100	99	100	0
143 to 145	Cc1cc(F)c(Nc2c(-c3ccc(F)cc3Br)c(C)nn2C)c(Br)c1 [Compound 7, N-(2-bromo-6-fluoro-4-methylphenyl)-4-(2-bromo-4-fluorophenyl)-1,3-dimethyl-1H-pyrazol-5-amine]	100	100	100	100	99
188 to 189	Cc1cc(Cl)c(Nc2c(-c3ccc(F)cc3Cl)c(C)nn2C)c(Cl)c1 [Compound 13, 4-(2-chloro-4-fluorophenyl)-N-(2,6-dichloro-4-methylphenyl)-1,3-dimethyl-1H-pyrazol-5-amine]	100	100	100	100	0
	Cc1ccc(Nc2c(-c3ccc(F)cc3Cl)c(C)nn2C)c(Cl)c1 [Compound 2, 4-(2-chloro-4-fluorophenyl)-N-(2-chloro-4-methylphenyl)-1,3-dimethyl-1H-pyrazol-5-amine]	100	95	97	100	0
137 to 138	Cc1cc(F)c(Nc2c(-c3ccc(F)cc3Cl)c(C)nn2C)c(Cl)c1 [Compound 12, N-(2-chloro-6-fluoro-4-methylphenyl)-4-(2-chloro-4-fluorophenyl)-1,3-dimethyl-1H-pyrazol-5-amine]					
114 to 116	Cc1cc(F)c(Nc2c(-c3ccc(F)cc3Br)c(C)nn2C)c(F)c1 [Compound 14, 4-(2-bromo-4-fluorophenyl)-N-(2,6-difluoro-4-methylphenyl)-1,3-dimethyl-1H-pyrazol-5-amine]	100	100	100	100	86
156 to 158	Cc1cc(F)c(Nc2c(-c3ccc(F)cc3F)c(C)nn2C)c(F)c1 [Compound 9, N-(2,6-difluoro-4-methylphenyl)-4-(2,4-difluorophenyl)-1,3-dimethyl-1H-pyrazol-5-amine]	100	96	100	100	96
145 to 146	Cc1cc(F)c(Nc2c(-c3ccc(F)cc3Br)c(C)nn2C)c(Cl)c1 [Compound 11, 4-(2-bromo-4-fluorophenyl)-N-(2-chloro-6-fluoro-4-methylphenyl)-1,3-dimethyl-1H-pyrazol-5-amine]					
